Results taken from US20170265463A1, “SPORICIDAL COMPOSITION” (CASE WESTERN RESERVE UNIVERSITY, priority 2016, published 2017).

How the values were obtained:
[1] = test system: Clostridium difficile spores (VA11, VA17, ATCC 43593); test: Effect of altered pH on sporicidal activity of alcohol (spore suspension, log10CFU reduction); type: cell-based; conditions: 70% alcohol acidified to pH<2 (pH 1.5), 5 minutes, room temperature (FIG. 7A)
Description: (room temperature). B. subtilis, B. thuringiensis, and three strains of C. difficile spores were tested (described above in Spore Strains and Growth Conditions). The reaction was quenched by neutralizing 1:1 in Dey-Engley neutralization broth (BD Biosciences, San Jose, Calif., USA). Neutralized samples were serial diluted in deionized water, drop-plated, and cultured as described above in Spore Strains and Growth Conditions.
The reaction was quenched by neutralizing 1:1 in Dey-Engley neutralization broth (BD Biosciences, San Jose, Calif.). Neutralized samples were serially diluted in deionized water, drop-plated, and cultured as described previously. To increase the sensitivity of enumeration for samples with high levels of spore killing, 1 mL of the neutralized spore suspensions were spread-plated.

B. subtilis spores [2] = conditions: 70% ethanol, no pH alteration, 80° C., 60 minutes
Description: (§1) To determine the effect of elevated temperature on the sporicidal efficacy of ethanol, ten microliters of spores (˜10^6 CFU) were incubated in one mL of 70% ethanol or deionized water at about 22° C. (room temperature), 55° C. or 80° C. The pH was not altered for these experiments. B. subtilis, B. thuringiensis, and VA11 and VA17 C. difficile spores were tested (described above in Spore Strains and Growth Conditions). After 0, 5, 10, 20, 30 and 60 minutes of incubation at the appropriate temperature, aliquots of each spore suspension were serial diluted in deionized water, drop-plated, and cultured as described above in Spore Strains and Growth Conditions. Log10CFU reduction of spores was determined by calculating the difference in log10CFU recovered from baseline (spores incubated in water) and experimental groups (spores incubated in ethanol).

B. thuringiensis spores [3] = conditions: 70% ethanol, no pH alteration, 80° C., 60 minutes
Description: as §1

[4] = test system: C. difficile spores (strains VA11 and VA17); conditions: 70% ethanol, no pH alteration
Description: as §1

[5] = test system: C. difficile (VA17) spores; test: Dipicolinic acid (DPA) release, terbium fluorescence; type: cell-based, Clostridium difficile; conditions: room temperature, within 10 minutes; compared to water, 70% ethanol and pH 1.5 water
Description: (§2) To assess whether acidified ethanol truly kills spores or only renders them incapable of germination, recovery of killed spores was assessed by incubation in lysozyme or dodecylamine which bypass germinant receptors. To assess whether acidified ethanol kills spores through alteration in the permeability of the dormant spores' inner membrane barrier, we evaluated whether spore killing occurs in parallel with dipicolinic acid (DPA) release. C. difficile (VA17), B. thuringiensis and B. subtilis spores were suspended in water, water altered to pH 1.5, 70% ethanol, 70% ethanol altered to pH 1.5, 3.0 or 3.0 with increased ionic strength, and 1 mM dodecylamine (induces DPA release in spores of several species). After 1, 5, and 10 minutes of incubation at room temperature (about 22° C.), DPA release was assessed as previously described. […] Fluorescence was measured using a plate reader (SpectraMaxM2, Bucher Biotec, Basel, Switzerland) with the following settings: time resolved fluorescence (delay 50 μs, interval 1200 μs) at an excitation wavelength of 272 nm, emission wavelength of 545 nm, and 5 endpoint readings per sample at 22° C. To determine percent DPA release, relative fluorescence units (RFU) of test solutions were compared to the RFU of total spore DPA content (supernatant of 10^7 CFU spores suspended in water boiled for 30 minutes) as previously described.

B. subtilis spores [6] = conditions: room temperature, 1, 5, 10 minutes
Description: as §2

B. thuringiensis spores [7] = conditions: room temperature, 1, 5, 10 minutes
Description: as §2

[8] = test system: toxigenic C. difficile spores; parameters: species or system Clostridium difficile; conditions: applied as a liquid or wipe
Text: Reduction of toxigenic C. difficile spores inoculated on gloves of volunteers was compared after 30 or 60 second exposures to the sporicidal ethanol formulation, 70% ethanol, and 1:10 or 1:100 dilutions of household bleach; the solutions were applied both as a liquid solution and as a wipe. We also examined the efficacy of the sporicidal ethanol formulation for elimination of spore contamination from the gloves of healthcare personnel interacting with C. difficile infection (CDI) patients or their environment. To determine the potential for the disinfectants to damage clothing, the solutions were applied to pieces of colored cloth.

spores = test: Other antibacterial compounds in combination with acidified ethanol (sporicidal activity); type: cell-based; conditions: compared with addition of peracetic acid
[9] = test system: C. difficile (VA17) spores; test: Effect of addition of dilute peracetic acid on sporicidal activity of acidified ethanol; type: cell-based, Clostridium difficile; conditions: peracetic acid alone at 450, 650 and 1500 ppm, 3 minute dwell time
Description: (§3) The effect of addition of peracetic acid on activity of acidified ethanol against C. difficile (VA17) and B. subtilis was tested at room temperature (about 22° C.). The pH of specified test solutions was adjusted to 2.5 or 1.5 with hydrochloric acid (HCl). Ten microliters of spores (about 10^6 CFU) were inoculated into one mL of water (baseline), pH adjusted ethanol, peracetic acid at 450, 650, or 1500 ppm, pH adjusted peracetic acid at 450 and 650 ppm, ethanol plus peracetic acid at 450 and 650 ppm, and pH adjusted ethanol plus peracetic acid at 450 and 650 ppm. Spore suspensions were incubated at room temperature for three minutes. The reaction was quenched by neutralizing 1:1 in Dey-Engley neutralization broth (BD Biosciences). […] Experiments were performed in triplicate.
(§4) The effect of the addition of dilute PAA on the activity of acidified ethanol against C. difficile strain VA17 and B. subtilis was tested at 22° C. The pH of specified test solutions was adjusted to 2.5 or 1.5 with hydrochloric acid. Ten μL of spores (˜10^6 CFU) were inoculated into one mL of water (baseline), pH adjusted ethanol, PAA at 450, 650, or 1500 ppm, pH adjusted PAA at 450 and 650 ppm, ethanol plus PAA at 450 and 650 ppm, and pH adjusted ethanol plus PAA at 450 and 650 ppm and incubated for 3 minutes. The reaction was quenched by neutralizing 1:1 in Dey-Engley neutralization broth. […]

B. subtilis spores [10] = test: as above; type: cell-based, Bacillus subtilis; conditions: peracetic acid alone at 450, 650 and 1500 ppm, 3 minute dwell time
Description: as §3, §4

[11] = test system: non-toxigenic C. difficile spores (ATCC 43593); test: Reduction of C. difficile spores on hands of volunteers (fingerpad method, modified ASTM E 2276-10); type: in vivo, Clostridium difficile; conditions: Example 3; P>0.05
Description: A modification of the “Standard Test Method for Determining the Bacteria-Eliminating Effectiveness of Hygienic Handwash and Handrub Agents Using the Fingerpads of Adults” (American Society for Testing and Materials E 2276-10) was used to determine the efficacy of test solutions against non-toxigenic C. difficile spores. Each fingerpad of both hands were contaminated with 10 μL of a liquid inoculum containing 6 log10CFU of ATCC 43593 spores. The fingerpads were rubbed together until the inoculum was dry. Hand contamination levels were measured using the fingerpad sampling method. In brief, the fingerpads of each hand were rubbed with slight friction against the bottom of a 150 mm×15 mm Petri dish filled with 25 mL of Dey-Engley neutralizer (BD Biosciences, San Jose, Calif., USA) for 30 seconds. […] Log10 reductions were calculated by subtracting log10 CFU recovered after hand hygiene treatment from log10 CFU recovered from hands without treatment.
A crossover design was used such that each volunteer was exposed to three of the disinfection procedures. […] The person reading the plates to quantify spore counts was blinded to the test product that was used. […]
Similar experiments were conducted to assess the efficacy of dilute peracetic acid-containing solutions and acidified ethanol solutions at 42° C. […] Reductions in spore counts were then determined as described previously. […]

[12] = in-use concentrations of surface disinfectants (~1500 ppm); cited from earlier work

Compound: CCCO [1-propanol]
- Sporicidal activity against C. difficile spores on acidification of the alcohol [1]: induced sporicidal activity

Compound: CC(C)O [2-propanol]
- Sporicidal activity against C. difficile spores on acidification of the alcohol [1]: induced sporicidal activity

Compound: CCO [70% ethanol, ethanol]
- Log10CFU reduction of B. subtilis spores (B. subtilis spores [2]): > 4 log10CFU
- Log10CFU reduction of B. thuringiensis spores (B. thuringiensis spores [3]): > 5 log10CFU
- Log10CFU reduction of C. difficile spores ([4]; 55° C., 60 minutes): 1 log10CFU
- Detectable C. difficile spores ([4]; 80° C., 10 minutes): no C. difficile spores were detectable
- DPA release from C. difficile spores [5]: low levels of baseline DPA release
- DPA release from B. subtilis spores (B. subtilis spores [6]): did not
- DPA release from B. thuringiensis spores (B. thuringiensis spores [7]): low levels of baseline DPA release
- Reduction in spores on gloves [8]: < 1 log

Compound: [O][Cl+][O-] [chlorine dioxide]
- Enhancement of sporicidal activity on addition to acidified ethanol (spores): did not result in similar enhancement of sporicidal activity

Compound: [Cu] [copper]
- Enhancement of sporicidal activity on addition to acidified ethanol (spores): did not result in similar enhancement of sporicidal activity

Compound: II [iodine]
- Enhancement of sporicidal activity on addition to acidified ethanol (spores): did not result in similar enhancement of sporicidal activity

Compound: CC(=O)OO [peracetic acid]
- Reduction of C. difficile spores [9]: in a dose-dependent fashion
- Reduction of B. subtilis spores (B. subtilis spores [10]): in a dose-dependent fashion
- Reduction in C. difficile spores on hands compared with soap and water hand wash [11]: not significantly different
- Skin irritation [12]: does not cause skin irritation

Compound: OCl [sodium hypochlorite]
- Enhancement of sporicidal activity on addition to acidified ethanol (spores): did not result in similar enhancement of sporicidal activity
